Test results taken from patent US20240238314A1, “TREATMENT OF ESSENTIAL TREMOR” (Sage Therapeutics, Inc., priority 2021, published 2024).

Test system: individuals with essential tremor
Assay: Phase 2 placebo-controlled study, Compound 1 60 mg once daily for 28 days (reducible to 45 mg or 30 mg): TETRAS performance subscale part 4 upper limb tremor score and tremor amplitude
Type: in vivo, human
Details: for % CFB in Tremor Amplitude: calculated from TETRAS part 4 ratings
Description: 4) Upper limb tremor: Tremor is assessed during three maneuvers: forward horizontal reach posture, lateral “wing beating” posture and finger-nose-finger testing. Each upper limb is assessed and scored individually. The forward horizontal reach posture is held for 5 seconds. The lateral wing beating posture is held for 20 seconds. The finger-nose-finger movement is executed three times. Amplitude assessment should be estimated using the maximally displaced point of the hand at the point of greatest displacement along any single plane. For example, the amplitude of a pure supination-pronation tremor, pivoting around the wrist would be assessed at either the thumb or fifth digit.
For all three hand tremor ratings: 0=no tremor. 1=tremor is barely visible. 1.5=tremor is visible, but less than 1 cm. 2=tremor is 1-<3 cm amplitude. 2.5=tremor is 3-<5 cm amplitude. 3=tremor is 5-<10 cm amplitude. 3.5=tremor is 10-<20 cm amplitude. 4=tremor is >20 cm amplitude.
As used herein, “The Essential Tremor Rating Assessment Scale (TETRAS) performance subscale part 4 upper limb tremor total score” refers to the “upper limb tremor” under metric or characteristic 4 of the TETRAS performance subscale set forth above. Each of the three tasks are performed on each limb to give a total of 6 tasks, wherein each task is scored 0, 1, 1.5, 2, 2.5, 3, 3.5, or 4, and each score is added to give a total score no greater than 24.
[formula] • wherein Tf is a final tremor amplitude; • Ti is an initial tremor amplitude; • Rf is a final tremor rating; • Ri is an initial tremor rating; • α is 0.05; and • N=6, for 6 tasks in TETRAS performance subscale part 4 upper limb tremor total score.
Participants were 18 to 80 years of age, inclusive, diagnosed of ET of at least 3 years duration with scores of at least 1.5 for each of the six items that comprised the combined total upper limb TETRAS (total performance subscale part 4) with the total score for the dominant upper limb (the sum of the 3 items for either the right or left upper limb, whichever is dominant) being at least 5.5, at both Screening and predose on Day 1.
Groups received either Compound 1 as orally administered tablet(s) (each tablet providing 15 mg of Compound 1) or matching placebo at 1:1 ratio. Tablets were formulated as immediate release, white to off-white, round, film-coated tablets containing 15 mg of Compound 1, filler, disintegrant, lubricant, and glidant, wherein the tablets were formed using direct compression and coated with Opadry® II white as the film coating.
Participants were randomized to receive Compound 1 60 mg or placebo once daily in the morning on a 1:1 basis. If participants reported a TEAE considered by investigator to be related to Compound 1 and not tolerable, investigator might reduce the dose of Compound 1 from 60 mg in 15 mg decrements (i.e., 60 mg, to 45 mg, to 30 mg), as medically appropriate. If intolerable TEAEs persist at the 30 mg dose, Compound 1 was permanently stopped.
This study included a Screening Period of up to 28 days, a 29-day treatment period consisting of 28 days of dosing with the end of treatment visit intended to be on Day 29 at trough, and a 14-day follow-up period relative to final dose. Study patients were not taking other medications for essential tremor during the 28-day treatment period.
The model included the change from baseline at each visit as the dependent variable, treatment, baseline TETRAS performance subscale part 4 upper limb tremor score, assessment timepoint, and timepoint-by-treatment as explanatory variables. All explanatory variables were treated as a fixed effect. The main comparison was (difference in least mean square [LSMEAN]) between Compound 1 and placebo at the 29-day timepoint.
Model-based point estimates (i.e., LSMEAN, 95% confidence intervals, and p-values) were reported where applicable. An unstructured covariance structure was used to model the within-subject errors. […]

[1] = Baseline TETRAS Upper Limb Part 4 < 12, Day 29
[2] = Baseline TETRAS Upper Limb Part 4 ≥ 12, Day 29
[3] = Baseline part 4 upper limb total score ≥ 12, Day 8
[4] = Baseline part 4 upper limb total score ≥ 12, Day 15, 5 hr postdose
[5] = Baseline part 4 upper limb total score ≥ 12, Day 15, 8 hr postdose
[6] = Baseline part 4 upper limb total score ≥ 12, Day 15, predose
[7] = Baseline part 4 upper limb total score ≥ 12, Day 22
[8] = Baseline part 4 upper limb total score ≥ 12, Day 42
[9] = Full Analysis Set, Day 15, 5 hr postdose
[10] = Full Analysis Set, Day 15, 8 hr postdose
[11] = Full Analysis Set, Day 15, predose
[12] = Per-Protocol Set, Day 15, 5 hr postdose
[13] = Per-Protocol Set, Day 15, 8 hr postdose
[14] = Per-Protocol Set, Day 15, predose

COC[C@@]1(O)CC[C@H]2[C@@H](CC[C@@H]3[C@@H]2CC[C@]2(C)[C@@H](C(=O)Cn4nnc(C)n4)CC[C@@H]32)C1 [Compound 1]
LSMean (SE) CFB in TETRAS performance subscale part 4 upper limb tremor total score [1]: −1.06 | LSMean Difference (CI) vs placebo in CFB in TETRAS performance subscale part 4 upper limb tremor total score [1]: 0.45 | Mean (SD) % CFB in TETRAS performance subscale part 4 upper limb tremor total score [1]: −7.76% | % CFB in Tremor Amplitude [1]: −18.40% | Frequency of % CFB in tremor amplitude category 15-<30%, number of participants [2]: 6 | Frequency of % CFB in tremor amplitude category 15-<30%, percent of participants [2]: (28.6) | Frequency of % CFB in tremor amplitude category 30-<50%, number of participants [2]: 2 | Frequency of % CFB in tremor amplitude category 30-<50%, percent of participants [2]: (9.5) | Frequency of % CFB in tremor amplitude category 50-<75%, number of participants [2]: 2 | Frequency of % CFB in tremor amplitude category 50-<75%, percent of participants [2]: (9.5) | Frequency of % CFB in tremor amplitude category <15%, number of participants [2]: 11 | Frequency of % CFB in tremor amplitude category <15%, percent of participants [2]: (52.4) | Frequency of % CFB in tremor amplitude category >75%, number of participants [2]: 0 | Mean (SD) % CFB in TETRAS performance subscale part 4 upper limb tremor total score [2]: −20.47% | % CFB in Tremor Amplitude [2]: −41.00% | LSMean difference vs placebo in change from baseline in TETRAS performance subscale part 4 upper limb tremor total score [3]: −1.33 | Model-based LSMean (SE) change from baseline in TETRAS performance subscale part 4 upper limb tremor total score [3]: −1.99 (0.340) | LSMean difference vs placebo in change from baseline in TETRAS performance subscale part 4 upper limb tremor total score [4]: −1.60 | Model-based LSMean (SE) change from baseline in TETRAS performance subscale part 4 upper limb tremor total score [4]: −3.12 (0.449) | LSMean difference vs placebo in change from baseline in TETRAS performance subscale part 4 upper limb tremor total score [5]: −1.38 | Model-based LSMean (SE) change from baseline in TETRAS performance subscale part 4 upper limb tremor total score [5]: −2.84 (0.445) | LSMean difference vs placebo in change from baseline in TETRAS performance subscale part 4 upper limb tremor total score [6]: −1.37 | Model-based LSMean (SE) change from baseline in TETRAS performance subscale part 4 upper limb tremor total score [6]: −2.15 (0.371) | LSMean difference vs placebo in change from baseline in TETRAS performance subscale part 4 upper limb tremor total score [7]: −1.48 | Model-based LSMean (SE) change from baseline in TETRAS performance subscale part 4 upper limb tremor total score [7]: −2.56 (0.383) | LSMean difference vs placebo in change from baseline in TETRAS performance subscale part 4 upper limb tremor total score (Baseline part 4 upper limb total score ≥ 12, Day 29): −1.70 | LSMean difference vs placebo in change from baseline in TETRAS performance subscale part 4 upper limb tremor total score [8]: 0.22 | Model-based LSMean (SE) change from baseline in TETRAS performance subscale part 4 upper limb tremor total score [8]: −1.59 (0.475) | Percent reduction from baseline in tremor amplitude (Full Analysis Set): 36 | LSMean difference vs placebo in change from baseline in TETRAS performance subscale part 4 upper limb tremor total score (Full Analysis Set, Day 8): −0.81 | Model-based LSMean (SE) change from baseline in TETRAS performance subscale part 4 upper limb tremor total score (Full Analysis Set, Day 8): −1.67 (0.287) | LSMean difference vs placebo in change from baseline in TETRAS performance subscale part 4 upper limb tremor total score [9]: −0.40 | Model-based LSMean (SE) change from baseline in TETRAS performance subscale part 4 upper limb tremor total score [9]: −2.64 (0.452) | LSMean difference vs placebo in change from baseline in TETRAS performance subscale part 4 upper limb tremor total score [10]: −0.27 | Model-based LSMean (SE) change from baseline in TETRAS performance subscale part 4 upper limb tremor total score [10]: −2.36 (0.441) | LSMean difference vs placebo in change from baseline in TETRAS performance subscale part 4 upper limb tremor total score [11]: −0.48 | Model-based LSMean (SE) change from baseline in TETRAS performance subscale part 4 upper limb tremor total score [11]: −1.78 (0.344) | LSMean difference vs placebo in change from baseline in TETRAS performance subscale part 4 upper limb tremor total score (Full Analysis Set, Day 22): −0.77 | Model-based LSMean (SE) change from baseline in TETRAS performance subscale part 4 upper limb tremor total score (Full Analysis Set, Day 22): −2.10 (0.360) | Frequency of % CFB in tremor amplitude category 15-<30%, number of participants (Full Analysis Set, Day 29): 5 | Frequency of % CFB in tremor amplitude category 15-<30%, percent of participants (Full Analysis Set, Day 29): (23.8) | Frequency of % CFB in tremor amplitude category 30-<50%, number of participants (Full Analysis Set, Day 29): 6 | Frequency of % CFB in tremor amplitude category 30-<50%, percent of participants (Full Analysis Set, Day 29): (28.6) | Frequency of % CFB in tremor amplitude category 50-<75%, number of participants (Full Analysis Set, Day 29): 3 | Frequency of % CFB in tremor amplitude category 50-<75%, percent of participants (Full Analysis Set, Day 29): (14.3) | Frequency of % CFB in tremor amplitude category <15%, number of participants (Full Analysis Set, Day 29): 5 | Frequency of % CFB in tremor amplitude category <15%, percent of participants (Full Analysis Set, Day 29): (23.8) | Frequency of % CFB in tremor amplitude category >75%, number of participants (Full Analysis Set, Day 29): 2 | Frequency of % CFB in tremor amplitude category >75%, percent of participants (Full Analysis Set, Day 29): (9.5) | LSMean difference vs placebo in change from baseline in TETRAS performance subscale part 4 upper limb tremor total score (Full Analysis Set, Day 29): −1.07 (−2.14, −0.00) | Mean (SD) % CFB in TETRAS performance subscale part 4 upper limb tremor total score (Full Analysis Set, Day 29): −18.05% | Model-based LSMean (SE) change from baseline in TETRAS performance subscale part 4 upper limb tremor total score (Full Analysis Set, Day 29): −2.31 (0.401) | % CFB in Tremor Amplitude (Full Analysis Set, Day 29): −35.80% | LSMean difference vs placebo in change from baseline in TETRAS performance subscale part 4 upper limb tremor total score (Full Analysis Set, Day 29, listed as Cmpd 1): −1.07 | LSMean difference vs placebo in change from baseline in TETRAS performance subscale part 4 upper limb tremor total score (Full Analysis Set, Day 42): 0.62 | Model-based LSMean (SE) change from baseline in TETRAS performance subscale part 4 upper limb tremor total score (Full Analysis Set, Day 42): −1.23 (0.407) | LSMean difference vs placebo in change from baseline in TETRAS performance subscale part 4 upper limb tremor total score (Per-Protocol Set, Day 8): −0.97 | Model-based LSMean (SE) change from baseline in TETRAS performance subscale part 4 upper limb tremor total score (Per-Protocol Set, Day 8): −1.78 (0.319) | LSMean difference vs placebo in change from baseline in TETRAS performance subscale part 4 upper limb tremor total score [12]: −0.71 | Model-based LSMean (SE) change from baseline in TETRAS performance subscale part 4 upper limb tremor total score [12]: −2.83 (0.500) | LSMean difference vs placebo in change from baseline in TETRAS performance subscale part 4 upper limb tremor total score [13]: −0.70 | Model-based LSMean (SE) change from baseline in TETRAS performance subscale part 4 upper limb tremor total score [13]: −2.66 (0.500) | LSMean difference vs placebo in change from baseline in TETRAS performance subscale part 4 upper limb tremor total score [14]: −0.83 | Model-based LSMean (SE) change from baseline in TETRAS performance subscale part 4 upper limb tremor total score [14]: −1.94 (0.367) | LSMean difference vs placebo in change from baseline in TETRAS performance subscale part 4 upper limb tremor total score (Per-Protocol Set, Day 22): −1.15 | Model-based LSMean (SE) change from baseline in TETRAS performance subscale part 4 upper limb tremor total score (Per-Protocol Set, Day 22): −2.38 (0.408) | LSMean difference vs placebo in change from baseline in TETRAS performance subscale part 4 upper limb tremor total score (Per-Protocol Set, Day 29): −1.37 | Model-based LSMean (SE) change from baseline in TETRAS performance subscale part 4 upper limb tremor total score (Per-Protocol Set, Day 29): −2.50 (0.452) | LSMean difference vs placebo in change from baseline in TETRAS performance subscale part 4 upper limb tremor total score (Per-Protocol Set, Day 42): 0.36 | Model-based LSMean (SE) change from baseline in TETRAS performance subscale part 4 upper limb tremor total score (Per-Protocol Set, Day 42): −1.48 (0.474) | Percent reduction from baseline in tremor amplitude (subjects with baseline TETRAS performance subscale part 4 upper limb tremor total score ≥12): 41%
